Data published in ChEMBL document CHEMBL1149717, “Three New Eudesmane Sesquiterpenes from Pluchea arguta” (J Nat Prod, 1992).
Calls of active or inactive are those of the source.

Columns and labels:
Type in all cases: functional, organism-based
[1] = tested on: Lactococcus lactis; assay: Antibacterial activity against Streptococcus lactis
[2] = tested on: Klebsiella pneumoniae; assay: Antibacterial activity against Klebsiella ozaenae; settings: subsp. ozaenae
[3] = tested on: Proteus vulgaris; assay: Antibacterial activity against Proteus vulgaris

Measured: Activity

CC(=O)O[C@]1(C)[C@@H]2C=C(C(C)(C)O)C(=O)C[C@@]2(C)CC[C@H]1OC(=O)C(C)(O)C(C)Cl (stereo partly drawn)
active: all assays above
